SMILES strings stand for the structures.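 Tested at 5 concentrations; 48 h exposure; 96-well plates; endpoints linearly interpolated, else capped at highest concentration. TGI marks complete inhibition of growth.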

This is an account of results in PubChem BioAssay (NCI).

The test system of one test is A498 renal. The experiment in a line: growth of human tumour cells (NCI), 48 h.
Turning to `Cc1ccc(S(=O)(=O)n2cc(-c3cc(C(F)(F)F)ccn3)c3cc(Br)ccc32)cc1`, the TGI amounted to 46.9 µM.
Still for that read-out and setting: in the case of `Cc1cc2ccccc2n2c1nc1ccccc12` it was 76.7 µM; in that of `CC1C2(C)OC(=N)C(C#N)(C(c3ccccc3)O2)C1(C#N)C#N` (stereo not given), over 100 µM; in that of `[N-]=[N+]=Nc1ccccc1C(=O)N1C(=O)c2ccccc2C(=O)N(C(=O)c2ccccc2N=[N+]=[N-])c2ccccc21`, over 100 µM.
Turning to `COC1(OC)c2no[n+]([O-])c2CCC1O` (stereo not given), the TGI was over 100 µM.
The same measure, in the same setting: with `CN(C)Nc1cc(=O)[nH]c(=O)[nH]1` the figure was over 100 µM; with `Clc1ccc(NCc2nnc(CCCCCCCCc3nnc(CNc4ccc(Cl)cc4)o3)o2)cc1`, over 100 µM.
In the case of `O=C(CC(=O)N(C(=O)/C=C\c1ccccc1)c1ccc(Cl)cc1)N1N=C(c2ccccc2)C(N=Nc2cccc([N+](=O)[O-])c2)C1=O` (stereo not given), the TGI amounted to 35.6 µM.
The molecule `Cc1cc(=O)[nH]c(-n2[nH]c(C)c(CCO)c2=O)n1` came in with a TGI of over 100 µM.
The same measure, in the same setting: with `COc1ccc(Nc2nnc(-c3nsc4ccccc34)s2)cc1` the figure was 15.8 µM; with `CCOC(=O)c1cnc2oc3ccc(O)cc3c2c1C`, over 100 µM; with `CN(C)CCCSc1nc2ccccc2[nH]1`, over 100 µM.

For a further test, the system named is A549 NSCLC. The experiment in a line: growth of human tumour cells (NCI), 48 h.
Consider `Cc1ccc(S(=O)(=O)n2cc(-c3cc(C(F)(F)F)ccn3)c3cc(Br)ccc32)cc1`, for which the TGI is 51.8 µM.
`Cc1cc2ccccc2n2c1nc1ccccc12`: the TGI was over 100 µM.
Same read-out and setting: in the case of `CC1C2(C)OC(=N)C(C#N)(C(c3ccccc3)O2)C1(C#N)C#N` (stereo not given) it was over 100 µM; in that of `[N-]=[N+]=Nc1ccccc1C(=O)N1C(=O)c2ccccc2C(=O)N(C(=O)c2ccccc2N=[N+]=[N-])c2ccccc21`, over 100 µM.
For the molecule `COC1(OC)c2no[n+]([O-])c2CCC1O` (stereo not given), the TGI was over 100 µM.
In turn, `CN(C)Nc1cc(=O)[nH]c(=O)[nH]1` displayed a TGI of over 100 µM.
Still for that read-out and setting: in the case of `Clc1ccc(NCc2nnc(CCCCCCCCc3nnc(CNc4ccc(Cl)cc4)o3)o2)cc1` it was over 100 µM.
Still for that read-out and setting: with `O=C(CC(=O)N(C(=O)/C=C\c1ccccc1)c1ccc(Cl)cc1)N1N=C(c2ccccc2)C(N=Nc2cccc([N+](=O)[O-])c2)C1=O` (stereo not given) the figure was over 100 µM; with `Cc1cc(=O)[nH]c(-n2[nH]c(C)c(CCO)c2=O)n1`, over 100 µM.
Same read-out and setting: with `COc1ccc(Nc2nnc(-c3nsc4ccccc34)s2)cc1` the figure was over 100 µM; with `CCOC(=O)c1cnc2oc3ccc(O)cc3c2c1C`, over 100 µM; with `CN(C)CCCSc1nc2ccccc2[nH]1`, over 100 µM.

A further test relates to COLO 205 colon. Put plainly: growth of human tumour cells (NCI), 48 h.
Take `Cc1ccc(S(=O)(=O)n2cc(-c3cc(C(F)(F)F)ccn3)c3cc(Br)ccc32)cc1`: the TGI was over 100 µM.
Still for that read-out and setting: in the case of `Cc1cc2ccccc2n2c1nc1ccccc12` it was over 100 µM; in that of `CC1C2(C)OC(=N)C(C#N)(C(c3ccccc3)O2)C1(C#N)C#N` (stereo not given), 30.4 µM.
Same read-out and setting: in the case of `[N-]=[N+]=Nc1ccccc1C(=O)N1C(=O)c2ccccc2C(=O)N(C(=O)c2ccccc2N=[N+]=[N-])c2ccccc21` it was over 100 µM; in that of `COC1(OC)c2no[n+]([O-])c2CCC1O` (stereo not given), over 100 µM.
The same measure, in the same setting: in the case of `CN(C)Nc1cc(=O)[nH]c(=O)[nH]1` it was over 100 µM.
For the molecule `Clc1ccc(NCc2nnc(CCCCCCCCc3nnc(CNc4ccc(Cl)cc4)o3)o2)cc1`, the TGI is over 100 µM.
Same read-out and setting: with `O=C(CC(=O)N(C(=O)/C=C\c1ccccc1)c1ccc(Cl)cc1)N1N=C(c2ccccc2)C(N=Nc2cccc([N+](=O)[O-])c2)C1=O` (stereo not given) the figure was 14.7 µM; with `Cc1cc(=O)[nH]c(-n2[nH]c(C)c(CCO)c2=O)n1`, over 100 µM.
Consider `COc1ccc(Nc2nnc(-c3nsc4ccccc34)s2)cc1`, for which the TGI is over 100 µM.
Molecule `CCOC(=O)c1cnc2oc3ccc(O)cc3c2c1C` registered a TGI of over 100 µM.
The same measure, in the same setting: with `CN(C)CCCSc1nc2ccccc2[nH]1` the figure was over 100 µM.

The next test concerns DU-145 prostate. The experiment in a line: growth of human tumour cells (NCI), 48 h.
`Cc1ccc(S(=O)(=O)n2cc(-c3cc(C(F)(F)F)ccn3)c3cc(Br)ccc32)cc1` had a TGI of over 100 µM.
The same measure, in the same setting: with `Cc1cc2ccccc2n2c1nc1ccccc12` the figure was over 100 µM; with `CC1C2(C)OC(=N)C(C#N)(C(c3ccccc3)O2)C1(C#N)C#N` (stereo not given), over 100 µM; with `[N-]=[N+]=Nc1ccccc1C(=O)N1C(=O)c2ccccc2C(=O)N(C(=O)c2ccccc2N=[N+]=[N-])c2ccccc21`, over 100 µM.
Consider `COC1(OC)c2no[n+]([O-])c2CCC1O` (stereo not given), for which the TGI is over 100 µM.
On the same count and under the same terms, in the case of `CN(C)Nc1cc(=O)[nH]c(=O)[nH]1` it was over 100 µM; in that of `Clc1ccc(NCc2nnc(CCCCCCCCc3nnc(CNc4ccc(Cl)cc4)o3)o2)cc1`, over 100 µM.
With `O=C(CC(=O)N(C(=O)/C=C\c1ccccc1)c1ccc(Cl)cc1)N1N=C(c2ccccc2)C(N=Nc2cccc([N+](=O)[O-])c2)C1=O` (stereo not given), the TGI was found to be 91.8 µM.
Same read-out and setting: in the case of `Cc1cc(=O)[nH]c(-n2[nH]c(C)c(CCO)c2=O)n1` it was over 100 µM; in that of `COc1ccc(Nc2nnc(-c3nsc4ccccc34)s2)cc1`, over 100 µM.
Still for that read-out and setting: with `CCOC(=O)c1cnc2oc3ccc(O)cc3c2c1C` the figure was over 100 µM.
Still for that read-out and setting: with `CN(C)CCCSc1nc2ccccc2[nH]1` the figure was over 100 µM.

The next test concerns EKVX NSCLC. The experiment in a line: growth of human tumour cells (NCI), 48 h.
Molecule `Cc1ccc(S(=O)(=O)n2cc(-c3cc(C(F)(F)F)ccn3)c3cc(Br)ccc32)cc1` returned a TGI of over 100 µM.
Still for that read-out and setting: in the case of `Cc1cc2ccccc2n2c1nc1ccccc12` it was over 100 µM.
On the same count and under the same terms, with `CC1C2(C)OC(=N)C(C#N)(C(c3ccccc3)O2)C1(C#N)C#N` (stereo not given) the figure was 56.6 µM.
`[N-]=[N+]=Nc1ccccc1C(=O)N1C(=O)c2ccccc2C(=O)N(C(=O)c2ccccc2N=[N+]=[N-])c2ccccc21` showed a TGI of over 100 µM.
`COC1(OC)c2no[n+]([O-])c2CCC1O` (stereo not given) gave a TGI of over 100 µM.
Same read-out and setting: in the case of `CN(C)Nc1cc(=O)[nH]c(=O)[nH]1` it was over 100 µM; in that of `Clc1ccc(NCc2nnc(CCCCCCCCc3nnc(CNc4ccc(Cl)cc4)o3)o2)cc1`, over 100 µM.
